Source: patent US20160108135A1, “GHRELIN IN THE DIAGNOSIS OF CNS DISORDERS” (priority 2013, published 2016)
“Also recorded” adds a separate entry of the source. Ends that are not written are not given here. * marks the point of attachment. Octanoyl = CCCCCCCC(=O)*

Tests used:
[1] = test system: dividing cells (Ki67+) in the sub-granular zone of the dentate gyrus; assay: Ki67 cell proliferation in hippocampal dentate gyrus of wild-type and ghsr-/- mice; type: in vivo; conditions: i.v. 48 μg/day for 7 days; for Ki67+ cells (cell proliferation) in the DG of adult wild-type mice: vs saline
Experimental: To further examine the role of ghrelin in enhancing cell proliferation in the SGZ, the effect of peripherally administered ghrelin in both wild-type and ghrelin-receptor null (ghsr^−/−) mice (Zigman et al. J. Clin. Invest (2005)115 (12:3564-72)) was analysed.
Adult growth hormone secretagogue receptor (GHSR)-null mice (8-10 weeks-old) and their wild-type littermates were used. These were derived from crosses between animals that were heterozygous for the GHSR-null allele and that had been backcrossed >10 generations onto a C57BL6/J genetic background. Metabolic aspects of these mice have been published (Davies et al. 2009 Molecular Endocrinology, 23(6), 914-24.).
Ghrelin was administered peripherally via an intravenous osmotic mini-pump at a rate of 1 μl/hour with a total of 48 μg/day to groups of 6 mice. Control groups were given peripheral saline.
After 7 days, mice were killed by cervical dislocation whole brain was removed and immediately snap frozen on dry ice.
(§1) Cell proliferation in the hippocampal dentate gyms was subsequently analysed using a one-in-fifteen series of 10 μm sections (150 μm apart) from each animal. These were stained for Ki67 immunofluorescence and a primary antibody rabbit anti-Ki67 (1:500 Abcam) applied. Immunolabelled cells were counted throughout the rostro-caudal extent of the granule cell layer and quantified.
(§2) Immunolabelled cells were counted bilaterally using a ×40 objective (Zeiss Axioscope) throughout the rostro-caudal extent of the granule cell layer (GCL). Resulting numbers were divided by the number of coronal sections analyzed and multiplied by the distance between each section to obtain an estimate of the number of cells per hippocampus (and divided by 2 to obtain the total per dentate gyms).
All experiments and analyses were performed blind to genotype and treatment.
Statistical analyses were carried out using GraphPad Prizm 6.0 for Mac. Statistical significance was assessed by unpaired two-tailed Student's t-test or one-way ANOVA with Bonferroni's post-hoc test unless described otherwise: *, P<0.05; **, P<0.01; ***, P<0.001.
(§3) To determine whether unacylated-ghrelin (UAG) regulates NSPC plasticity, cell proliferation and immature neurons were quantified in wild-type mice following either peripheral administration of saline or UAG (i.v, 48 μg/day, n=6/group) for 7-days. The method was similar to that described in Example 1.

[2] = test system: immature DCX+ neurons within the SGZ; assay: Immature DCX+ neurons in the SGZ of wild-type mice; type: in vivo; conditions: i.v. 48 μg/day for 7 days, vs vehicle
Description: as §1, §2, §3

[3] = test system: Ghsr; conditions: cited from earlier work
[4] = test system: adult rat hippocampus; assay: BrdU+ cell proliferation in adult rat hippocampus after 7-day i.v. infusion (FIG. 1A); type: in vivo; conditions: 7-day i.v. infusion 80 μg/day; BrdU 50 mg/kg i.p 30 minutes prior to brain collection; vs vehicle
[5] = test system: spatial pattern separation; assay: Spontaneous location recognition (SLR) task, spatial pattern separation; type: in vivo, rat; conditions: rats, 10 μg/kg i.p daily days 1-14, tested days 22-26
Experimental: A) Experimental paradigm B) Schematic of Spontaneous location recognition (SLR) task. During a sample phase animals were exposed to 3 identical objections (two were located close together (small separation) or very close together (X-small separation) and the 3rd was further away) for 10 minutes. 24 hours later the rats were exposed to 2 of the objects during the test phase and the time spent exploring each object was measured. Dotted objects indicate the original location during the sample phase. C) Discrimination ratios during the test phase for ‘novel’ conditions in the SLR task. […] D) Representative images of the new adult-born DG neurons (white arrows) co-expressing NeuN^+ and BrdU^+. […] Scale bar=100 μm.
(§4) Adult male Lister-hooded rats (n=12/group) were given daily injections of either saline or ghrelin (10 μg/kg i.p) (days 1-14) and BrdU (50 mg/kg i.p) on days 5-8 prior to analysis of spatial pattern separation using a spontaneous location recognition task (SLR) on days 22-26.
To reduce/avoid the acute LTP-mediated effects on pattern separation the final injection of ghrelin was given 7 days before the start of cognitive testing.

[6] = test system: new adult-born DG neurons; assay: New adult-born neurons (BrdU+/NeuN+) and neuroblasts (DCX+) in rat DG; type: in vivo; conditions: rats; for total number of new adult-born neurones (BrdU+/NeuN+) in the DG: 10 μg/kg i.p daily days 1-14, BrdU days 5-8, vs saline
Experimental: as §4
Animals were anesthetized with sodium pentobarbital and perfused transcardially with 0.9% NaCl solution, followed by 4% paraformaldehyde (PFA) in 0.1M phosphate buffer, pH 7.4. Brains were post-fixed in 4% PFA for 24 h, and cryoprotected in 30% sucrose for 24 h. The brains were then sectioned on a freezing-stage microtome into a 30 μm thick coronal section series. Immunohistochemical staining was performed on free-floating sections.
For detection of BrdU, sections were pre-treated with 2N HCl for 30 mins at 37° C. and washed in 0.1 M borate buffer, pH8.5, for 10 min. Immunofluorescent double-labeling was performed.
Primary antibodies used were: mouse anti-BrdU (1:50 AbD Serotec, UK), goat anti-doublecortin (Santa Cruz Biotechnology, USA), mouse anti-NeuN (Chemicon, Temecula, Calif., USA). Sections were also stained with Hoechst (Invitrogen) and mounted with prolong-gold anti-fade reagent (Invitrogen).
A one-in-twelve series of 30 μm sections (360 μm apart) from each animal was immunohistologically stained (as described in Example 1 above) and analysed by fluorescent and/or confocal microscopy. Immunolabelled cells were counted also as described in Example 1. Only cells with complete/strong BrdU immunoreactivity, oval nuclei, were counted.

[7] = rats; 10 μg/kg i.p; cited from earlier work

With “UAG: unacylated-ghrelin, the de-acylated form of ghrelin (GSSFLSPEHQRVQQRKESKKPPAKLQPR; Ghrelin-28 unacylated; UniProt Q9UBU3 24-51, looked up)” as the substance, how does the “Ki67+ cells (cell proliferation) in the DG of adult wild-type mice” value (shortened to “Ki67+ cells … of adult wild-type mice”) [1] read?
The value was “impairments observed in hippocampal cell proliferation; also recorded: reduced the number of dividing cells; also recorded: attenuated hippocampal cell proliferation”.

And the “number of immature DCX+ neurons within the SGZ” value [2]?
Its value is “impairments; also recorded: reduced; also recorded: significant reduction in the number of immature DCX^+ neurons”.

And the “binding or activation of Ghsr” value [3]?
Its value is “does not bind or activate Ghsr”.

Which “number of BrdU+ cells in adult rat hippocampus” value [4] does the source give for “ghrelin: gut hormone, 28 amino acid peptide with octanoyl modification on Ser-3; endogenous ligand of GHS-R 1a (GSS(Octanoyl)FLSPEHQRVQQRKESKKPPAKLQPR; UniProt Q9UBU3 24-51, looked up)” here?
Its value is “increased the number of BrdU^+ cells”.

What about the “Ki67+ cells (cell proliferation) in the DG of ghsr-/- mice” value ([1]; ghrelin-receptor null (ghsr-/-) mice) of the same substance?
The value was “no corresponding increase was observed; also recorded: inhibited the proliferative effect of ghrelin”.

And the “Ki67+ cells … of adult wild-type mice” value [1]?
The value was “increased Ki67^+ cells”.

What about the “Ki67+ cells … of adult wild-type mice” value ([1]; listed as Ghrelin) of the same substance?
Its value is “significant increase in cell proliferation”.

And the “SLR task, discrimination of 'novel' location, X-small separation condition (pattern separation)” value [5]?
Its value is “only ghrelin treated rats showed enhanced exploratory behaviour; also recorded: able to distinguish between very similar spatial locations”.

And the “SLR task, discrimination of 'novel' location, small separation condition” value [5]?
Its value is “enhanced exploratory behaviour for the ‘novel’ location in the small separation condition; also recorded: able to distinguish similar but distinct spatial locations”.

What about the “SLR task, discrimination of 'novel' location, X-small separation condition (pattern separation)” value ([5]; listed as acyl-ghrelin) of the same substance?
Its value is “improved pattern separation learning”.

What about the “total number of new adult-born neurones (BrdU+/NeuN+) in the DG” value (“total number of new adult-born neurones” for short) [6] of the same substance?
The value was “significantly increased”.

And the “total number of new adult-born neurones” value ([6]; listed as Ghrelin)?
The value was “significantly increased the number of new adult-born neurons”.

And the “total number of new adult-born neurones” value ([6]; listed as acyl-ghrelin)?
The value was “increased the number of new adult born neurons”.

What about the “DG neuroblast number (DCX+)” value ([6]; 14 days after the final injection, data not shown) of the same substance?
Its value is “remained significantly higher”.

What about the food intake [7] of the same substance?
The food intake was “increase food intake”.
